Laboratory results reported in the supplement of paper PMC10307832.

Assays:
Experiment in all cases: relative viability (nuclei count vs DMSO), 5 days (fraction); higher = more cells survive
Selumetinib + Navitoclax = compound: Cn1cnc2c(F)c(Nc3ccc(Br)cc3Cl)c(C(=O)NOCCO)cc21 [Selumetinib] + CC1(C)CCC(c2ccc(Cl)cc2)=C(CN2CCN(c3ccc(C(=O)NS(=O)(=O)c4ccc(N[C@H](CCN5CCOCC5)CSc5ccccc5)c(S(=O)(=O)C(F)(F)F)c4)cc3)CC2)C1 [Navitoclax] (partner 0.5 µM)
In short: (§1)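 Lung cancer cell lines were pin-tool dosed in 1536-well plates on the day after seeding, with either a lone drug or a fixed anchor-drug dose plus five library-drug doses (not always all listed) in √10 steps. Nuclei were counted on 4× images after 5 days. Relative viability is the ratio of treated-well to vehicle-well nuclei counts, with each value a median of duplicate plates.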

Venetoclax + OSI-027 = compound: CC1(C)CCC(CN2CCN(c3ccc(C(=O)NS(=O)(=O)c4ccc(NCC5CCOCC5)c([N+](=O)[O-])c4)c(Oc4cnc5[nH]ccc5c4)c3)CC2)=C(c2ccc(Cl)cc2)C1 [Venetoclax] + COc1cccc2cc(-c3nc([C@H]4CC[C@H](C(=O)O)CC4)n4ncnc(N)c34)[nH]c12 [OSI-027] (partner 0.5 µM)
In short: as §1

Selumetinib + Linsitinib = compound: Cn1cnc2c(F)c(Nc3ccc(Br)cc3Cl)c(C(=O)NOCCO)cc21 [Selumetinib] + C[C@]1(O)C[C@@H](c2nc(-c3ccc4ccc(-c5ccccc5)nc4c3)c3c(N)nccn32)C1 [Linsitinib] (partner 1 µM)
In short: as §1

Venetoclax + Vorinostat = compound: CC1(C)CCC(CN2CCN(c3ccc(C(=O)NS(=O)(=O)c4ccc(NCC5CCOCC5)c([N+](=O)[O-])c4)c(Oc4cnc5[nH]ccc5c4)c3)CC2)=C(c2ccc(Cl)cc2)C1 [Venetoclax] + O=C(CCCCCCC(=O)Nc1ccccc1)NO [Vorinostat] (partner 1 µM)
In short: as §1

| Cell Line | relative viability (Selumetinib + Navitoclax; first compound 0.02 µM) | relative viability (Selumetinib + Navitoclax; first compound 0.06325 µM) | relative viability (Selumetinib + Navitoclax; first compound 0.2 µM) | relative viability (Selumetinib + Navitoclax; first compound 0.6325 µM) | relative viability (Venetoclax + OSI-027; first compound 0.01 µM) | relative viability (Venetoclax + OSI-027; first compound 0.03162 µM) | relative viability (Venetoclax + OSI-027; first compound 0.1 µM) | relative viability (Venetoclax + OSI-027; first compound 0.3162 µM) | relative viability (Venetoclax + OSI-027; first compound 1 µM) | relative viability (Selumetinib + Linsitinib; first compound 0.02 µM) | relative viability (Selumetinib + Linsitinib; first compound 0.06325 µM) | relative viability (Selumetinib + Linsitinib; first compound 0.2 µM) | relative viability (Selumetinib + Linsitinib; first compound 0.6325 µM) | relative viability (Venetoclax + Vorinostat; first compound 0.01 µM) | relative viability (Venetoclax + Vorinostat; first compound 0.03162 µM) | relative viability (Venetoclax + Vorinostat; first compound 0.1 µM) | relative viability (Venetoclax + Vorinostat; first compound 0.3162 µM) | relative viability (Venetoclax + Vorinostat; first compound 1 µM) |
| --- | --- | --- | --- | --- | --- | --- | --- | --- | --- | --- | --- | --- | --- | --- | --- | --- | --- | --- |
| LU99A | 0.856 | 0.816 | 0.928 | 0.563 | 0.288 | 0.321 | 0.316 | 0.338 | 0.295 | 0.49 | 0.567 | 0.511 | 0.566 | 0.595 | 0.703 | 0.416 | 0.521 | 0.552 |
| LXF-289 | 0.913 | 0.894 | 0.754 | 0.754 | 0.753 | 0.857 | 0.881 | 0.771 | 0.623 | 1 | 0.853 | 0.745 | 0.719 | 0.885 | 0.791 | 0.746 | 0.751 | 0.734 |
| NCI-H23 | 0.851 | 0.827 | 0.672 | 0.63 | 0.592 | 0.625 | 0.525 | 0.683 | 0.439 | 0.585 | 0.53 | 0.43 | 0.369 | 0.565 | 0.752 | 0.54 | 0.619 | 0.521 |
| NCI-H322M | 1.14 | 0.795 | 1.05 | 1.04 | 0.667 | 0.575 | 0.605 | 0.564 | 0.48 | 0.717 | 0.608 | 0.67 | 0.626 | 0.982 | 1 | 0.818 | 0.996 | 0.903 |
| NCI-H441 | 0.959 | 0.574 | 0.839 | 0.546 | 0.569 | 0.566 | 0.608 | 0.575 | 0.553 | 0.543 | 0.46 | 0.491 | 0.435 | 0.78 | 0.762 | 1.02 | 0.868 | 0.743 |
| NCI-H460 | 1.18 | 0.916 | 0.86 | 0.578 | 0.681 | 0.592 | 0.585 | 0.62 | 0.515 | 0.666 | 0.429 | 0.262 | 0.214 | 0.602 | 0.684 | 0.653 | 0.739 | 0.6 |
| NCI-H520 | 1.08 | 1.1 | 1.12 | 1.07 | 0.262 | 0.287 | 0.209 | 0.253 | 0.217 | 1.08 | 0.944 | 1.09 | 1.07 | 0.761 | 0.75 | – | 0.668 | 0.733 |
| NCI-H596 | 0.906 | 0.845 | 0.677 | 0.415 | 0.704 | 0.748 | 0.694 | 0.748 | 0.587 | 1.07 | 1.02 | 1.01 | 0.776 | 0.649 | 0.626 | 0.587 | 0.568 | 0.714 |
| NCI-H647 | 1.26 | 0.935 | 0.874 | 0.959 | 0.69 | 0.769 | 0.625 | 0.589 | 0.509 | 1.28 | 1.06 | 0.827 | 0.803 | 0.451 | 0.629 | 0.529 | 0.528 | 0.465 |
| NCI-H727 | 0.237 | 0.184 | 0.119 | 0.103 | 0.68 | 0.762 | 0.525 | 0.63 | 0.723 | 0.17 | 0.207 | 0.168 | 0.166 | 1.04 | 1.4 | 1.08 | 1.12 | 1.11 |
| NCI-H838 | 1.01 | 0.965 | 0.963 | 0.88 | 0.493 | 0.405 | 0.37 | 0.377 | 0.435 | 0.883 | 0.848 | 0.807 | 0.735 | 0.699 | 0.72 | 0.709 | 0.769 | 0.719 |
| NCI-H1355 | 0.893 | 0.932 | 0.776 | 0.513 | 0.409 | 0.5 | 0.38 | 0.386 | 0.355 | 0.72 | 0.744 | 0.734 | 0.555 | 0.626 | 0.618 | 0.625 | 0.692 | 0.577 |
| NCI-H1395 | 1.08 | 1.13 | 1.22 | 1.28 | 0.623 | 0.603 | 0.605 | 0.656 | 0.662 | 1.05 | 0.939 | 0.973 | 1.08 | 0.7 | 0.838 | 0.673 | 0.907 | 0.896 |
| NCI-H1437 | 1.07 | 0.856 | 0.75 | 0.487 | 0.942 | 0.888 | 0.845 | 0.763 | 0.802 | 0.905 | 0.714 | 0.423 | 0.277 | 0.8 | 0.888 | 0.808 | 0.709 | 0.788 |
| NCI-H1651 | 1.1 | 0.941 | 0.887 | 0.846 | 0.804 | 0.714 | 0.62 | 0.596 | 0.658 | 0.973 | 0.962 | 0.815 | 0.902 | 0.566 | 0.585 | 0.577 | 0.497 | 0.599 |
| NCI-H1666 | 0.773 | 0.582 | 0.592 | 0.479 | 0.699 | 0.843 | 0.839 | 0.733 | 0.784 | 0.643 | 0.614 | 0.606 | 0.54 | 0.997 | 1.05 | 1.07 | 1.02 | 1.07 |
| NCI-H1734 | 0.862 | 0.818 | 0.87 | 0.679 | 0.616 | 0.568 | 0.515 | 0.57 | 0.542 | 0.862 | 0.849 | 0.865 | 0.816 | 0.613 | 0.876 | 0.711 | 0.761 | 0.76 |
